Test results as given in US20230115350A1 (Cedilla Therapeutics, Inc., priority 2021, published 2023).

Legend:
[1] = target: TEAD1 protein (YAP Binding Domain) (Homo sapiens, UniProt P28347); experiment: TEAD1 lipid pocket compound displacement assay (TR-FRET, Cy5-probe); conditions: 60 minutes incubation at room temperature; TR-FRET 665 nm/620 nm; read-out: CDA IC50
Outline: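 His-tagged TEAD1 YAP-binding domain pre-mixed with a Cy5-labelled lipid-pocket probe and Tb-anti-His antibody; compounds incubated with the complex 60 min at room temperature. TR-FRET read at 665/620 nm; IC50 from 4-parameter non-linear fit of probe displacement.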

NCI-H226 = experiment: 72H TEAD Proliferation Assay (Cell Titer-Glo 2.0); format: cell-based; conditions: Homo sapiens, NCI-H226, 72 h, CTG 2.0, cell line not given
Outline: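 NF2-deficient mesothelioma cells were seeded at 500 cells per well on 10-point half-log compound dilutions in duplicate and grown 72 hours at 37° C, 5% CO2. Viable cells were read by CellTiter-Glo 2.0 luminescence, background- and time-zero-subtracted; GI50 came from nonlinear regression of dose-response curves.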

His-Tev-Avi-TEAD1 = His-Tev-Avi-TEAD1 (Homo sapiens, UniProt P28347); experiment: TEAD mass modification assay (iMS); format: binding; conditions: 50 μM compound, 1 hour, room temperature
Chain of His-Tev-Avi-TEAD1 (P28347 209-426 limits assumed): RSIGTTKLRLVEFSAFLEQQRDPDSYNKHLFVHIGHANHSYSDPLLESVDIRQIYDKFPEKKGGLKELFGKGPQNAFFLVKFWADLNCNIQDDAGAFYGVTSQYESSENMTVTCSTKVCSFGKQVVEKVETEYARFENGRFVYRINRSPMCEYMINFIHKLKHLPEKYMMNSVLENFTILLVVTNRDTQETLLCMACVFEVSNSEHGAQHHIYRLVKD
Protocol: Compound stock (10 mM) was diluted to 2.5 mM with DMSO and His-Tev-Avi-TEAD1 was diluted to 5 μM with Reaction Buffer (50 mM Tris pH 8.0, 150 mM NaCl, and 1 mM TCEP). Compound (1 μL) is incubated with 49 μL protein at room temperature for 1 hour (final compound concentration was 50 μM). The sample (20 μL) was shipped on dry ice to MSBioworks for iMS analysis.
This assay confirms whether or not TEAD is covalently bound to a test compound (i.e., whether the protein's mass is modified). […] Compounds 80 (see FIG. 2), 89 (see FIG. 3), 73 (see FIG. 4), 53 (see FIG. 5), and 59 (see FIG. 6) were also tested in this fashion.

Chain of TEAD1 protein (YAP Binding Domain) (P28347 209-426 limits assumed): as above

Row | Structure (SMILES) | IC50 [1] [nM] | GI50 (NCI-H226) [nM] | mass modification of TEAD1 (covalent binding) (His-Tev-Avi-TEAD1)
1 | C=CC(=O)Nc1ccc(OCC2CCC(C(F)(F)F)CC2)c(F)c1 (stereo not drawn) [Compound 59, N-(3-fluoro-4-((4-(trifluoromethyl)cyclohexyl)methoxy)phenyl)acrylamide] | ≤ 250 | > 3000 | mass modification of TEAD1
2 | C=CC(=O)Nc1ccc(OCc2ccc(C(F)(F)F)nc2)c(F)c1 [Compound 73, N-(3-fluoro-4-((6-(trifluoromethyl)pyridin-3-yl)methoxy)phenyl)acrylamide] | 500 to 2000 | 250 to 1000 | mass modification of TEAD1
3 | C=CC(=O)Nc1ccc(OCc2cccc(Cl)c2Cl)c(F)c1 [Compound 80, N-(4-((2,3-dichlorobenzyl)oxy)-3-fluorophenyl)acrylamide] | ≤ 250 | 250 to 1000 | mass modification of TEAD1
